Reference: patent US10577378B2, “EIF4A-inhibiting compounds and methods related thereto” (eFFECTOR Therapeutics, Inc., priority 2015, dated 2020)

Each molecule was assayed on MDA-MB-231 human breast cancer cells (assay: Cell proliferation assay (CellTiter-Glo, 72 hours treatment)). Conditions: Homo sapiens; MDA-MB-231 cells, 72 hours at 37° C., CellTiter-Glo; read-out: MDA-MB-231 cell proliferation assay (IC50).
Assay type: cell-based
Outline: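 IC50 categories: under 100 nM +++, 100–1000 nM ++, above 1000 nM +, derived by sigmoidal curve fitting of CellTiter-Glo luminescence. Cells plated at 2,500 per well, dosed the following day and exposed 72 h at 37 °C versus DMSO control.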

COc1nc(Cl)cc2c1[C@]1(O)[C@H](O)[C@H](CN3CC(F)C3)[C@@H](c3ccccc3)[C@]1(c1ccc(C#N)cc1)O2 (racemic) [211Fb, Rac-4-((5aR,6S,7S,8R,8aS)-3-chloro-7-((3-fluoroazetidin-1-yl)methyl)-8,8a-dihydroxy-1-methoxy-6-phenyl-6,7,8,8a-tetrahydro-5aH-cyclopenta[4,5]furo[3,2-c]pyridin-5a-yl)benzonitrile] and COc1nc(Cl)cc2c1[C@]1(O)[C@H](O)[C@H](CN(C)C)[C@@H](c3ccccc3)[C@]1(c1ccc(C#N)cc1)O2 (single isomer, unassigned) [140F] cannot be ordered by IC50: < 100 nM for the first, < 100 nM for the second.

COc1cncc2c1[C@]1(O)[C@@H](CO)C[C@@H](c3ccccc3)[C@]1(c1ccc(C#N)cc1)O2 (single isomer, unassigned) [120F] and COc1cncc2c1[C@]1(O)[C@H](O)[C@H](CN3CCCCC3)[C@@H](c3ccccc3)[C@]1(c1ccc(C#N)cc1)O2 (single isomer, unassigned) [258F] cannot be ordered by IC50: < 100 nM for the first, < 100 nM for the second.

Compared with COc1cncc2c1[C@]1(O)[C@H](O)[C@H](CN3CCC(F)(F)C3)[C@@H](c3ccccc3)[C@]1(c1ccc(C#N)cc1)O2 (single isomer, unassigned) [280F], COc1cncc2c1[C@]1(O)[C@H](O)[C@H](C(=O)N3CCC(F)(F)CC3)[C@@H](c3ccccc3)[C@]1(c1ccc(Br)cc1)O2 (racemic) [135F, Rac-((4bS,5R,6R,7S,7aR)-7a-(4-bromophenyl)-4b,5-dihydroxy-4-methoxy-7-phenyl-4b,6,7,7a-tetrahydro-5H-cyclopenta[4,5]furo[2,3-c]pyridin-6-yl)(4,4-difluoropiperidin-1-yl)methanone] is lower in IC50: 100 to 1000 nM for the first, < 100 nM for the second. The second is the more potent here.

COc1cncc2c1[C@]1(O)[C@H](O)[C@H](CN(C)Cc3ccnn3C)[C@@H](c3ccccc3)[C@]1(c1ccc(C#N)cc1)O2 (single isomer, unassigned) [250F] and CN(C)C[C@H]1[C@@H](C#N)[C@@]2(O)c3ncc(Cl)cc3O[C@@]2(c2ccc(C#N)cc2)[C@@H]1c1ccccc1 (racemic) [228F, Rac-(5aR,6S,7R,8S,8aR)-3-chloro-5a-(4-cyanophenyl)-7-((dimethylamino)methyl)-8a-hydroxy-6-phenyl-5a,7,8,8a-tetrahydro-6H-cyclopenta[4,5]furo[3,2-b]pyridine-8-carbonitrile] cannot be ordered by IC50: > 1000 nM for the first, > 1000 nM for the second.
